Results on twelve compounds are retold here after patent US20070208166A1, “Tao Kinase Modulators And Method Of Use” (Exelixis, Inc., priority 2003, published 2007).

Format in all cases: biochemical
The target of experiment [1] is T1, KIAA 1361 (baculovirus expressed human KIAA 1361 kinase domain 2-322) (Homo sapiens, UniProt Q7L7X3).
T1 construct: human KIAA 1361 kinase domain 2-322; made in house
T1 sequence (Q7L7X3 2-322): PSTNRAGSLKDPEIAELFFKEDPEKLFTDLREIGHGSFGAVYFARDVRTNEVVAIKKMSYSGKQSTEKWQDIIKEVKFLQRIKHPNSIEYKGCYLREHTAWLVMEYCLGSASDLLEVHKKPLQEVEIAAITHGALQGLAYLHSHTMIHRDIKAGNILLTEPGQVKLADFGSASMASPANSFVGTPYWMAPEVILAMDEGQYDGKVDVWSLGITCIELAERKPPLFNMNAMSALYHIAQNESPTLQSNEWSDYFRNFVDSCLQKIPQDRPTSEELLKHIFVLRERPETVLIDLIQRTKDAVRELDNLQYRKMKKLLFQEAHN
The experiment can be described thus: KIAA 1361 Luciferase-Coupled Chemiluminescent Kinase assay (LCCA). The following applies: 2 μM ATP, 10 μM MBP, 12 nM KIAA 1361, 2 hours; read-out: KIAA1361 inhibition IC50. As to the method:
(§1) Kinase activity and compound inhibition are investigated using one or more of the three assay formats described below. The ATP concentrations for each assay are selected to be close to the Michaelis-Menten constant (KM) for each individual kinase. Dose-response experiments are performed at 10 different inhibitor concentrations in a 384-well plate format. The data are fitted to four-parameter equation (2) below; where Y is the observed signal, X is the inhibitor concentration, Min is the background signal in the absence of enzyme (0% enzyme activity), Max is the signal in the absence of inhibitor (100% enzyme activity), IC50 is the inhibitor concentration at 50% enzyme inhibition and H represents the empirical Hill's slope to measure the cooperativity. Typically H is close to unity. Y=Min+(Max−Min)/(1+(X/IC50)ˆH) Equation (2) KIAA 1361 Assay: […]
(§2) KIAA 1361 biochemical activity was assessed using a Luciferase-Coupled Chemiluminescent Kinase assay (LCCA) format. Kinase activity was measured as the percent ATP remaining following the kinase reaction. Remaining ATP was detected by luciferase-luciferin-coupled chemiluminescence. Specifically, the reaction was initiated by mixing test compounds, 2 μM ATP, 10 μM MBP and 12 nM KIAA 1361 (baculovirus expressed human KIAA 1361 kinase domain 2-322) in a 20 uL assay buffer (20 mM Tris-HCL pH7.5, 10 mM MgCl2, 0.02% Triton X-100, 100 mM DTT, 2 mM MnCl2). The mixture is incubated at ambient temperature for 2 hours after which 20 uL luciferase-luciferin mix is added and the chemiluminescent signal read using a Wallac Victor^2 reader. The luciferase-luciferin mix consists of 50 mM HEPES, pH 7.8, 8.5 ug/mL oxalic acid (pH 7.8), 5 (or 50) mM DTT, 0.4% Triton X-100, 0.25 mg/mL coenzyme A, 63 uM AMP, 28 ug/mL luciferin and 40,000 units of light/mL luciferase.

A further experiment deals with T2, JIK (Homo sapiens, UniProt Q9H2K8).
T2 construct: 6 nM JIK (baculovirus expressed human KIAA 1361 kinase domain2-318); made in house
T2 sequence (Q9H2K8 2-318): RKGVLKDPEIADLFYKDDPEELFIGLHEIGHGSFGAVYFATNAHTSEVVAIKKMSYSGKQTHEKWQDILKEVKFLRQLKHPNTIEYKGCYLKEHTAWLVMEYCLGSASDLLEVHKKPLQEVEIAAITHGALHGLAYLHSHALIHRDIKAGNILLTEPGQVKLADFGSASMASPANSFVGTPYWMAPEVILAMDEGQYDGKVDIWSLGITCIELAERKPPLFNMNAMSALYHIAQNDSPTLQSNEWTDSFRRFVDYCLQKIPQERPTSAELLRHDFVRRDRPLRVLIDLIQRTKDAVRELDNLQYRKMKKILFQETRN
The experiment in a line: JIK Luciferase-Coupled Chemiluminescent Kinase assay (LCCA). The following applies: 2 μM ATP, 10 μM MBP, 6 nM JIK, 2 hours; read-out: JIK inhibition IC50. As for the experimental part: as §1
as §2, with “JIK biochemical” for “KIAA 1361 biochemical”, “and 6” for “and 12”, “nM JIK” for “nM KIAA 1361”, “kinase domain2-318)” for “kinase domain 2-322)”

A further experiment deals with T3, TAO (Homo sapiens, UniProt Q9UL54).
T3 sequence (Q9UL54 1-1235): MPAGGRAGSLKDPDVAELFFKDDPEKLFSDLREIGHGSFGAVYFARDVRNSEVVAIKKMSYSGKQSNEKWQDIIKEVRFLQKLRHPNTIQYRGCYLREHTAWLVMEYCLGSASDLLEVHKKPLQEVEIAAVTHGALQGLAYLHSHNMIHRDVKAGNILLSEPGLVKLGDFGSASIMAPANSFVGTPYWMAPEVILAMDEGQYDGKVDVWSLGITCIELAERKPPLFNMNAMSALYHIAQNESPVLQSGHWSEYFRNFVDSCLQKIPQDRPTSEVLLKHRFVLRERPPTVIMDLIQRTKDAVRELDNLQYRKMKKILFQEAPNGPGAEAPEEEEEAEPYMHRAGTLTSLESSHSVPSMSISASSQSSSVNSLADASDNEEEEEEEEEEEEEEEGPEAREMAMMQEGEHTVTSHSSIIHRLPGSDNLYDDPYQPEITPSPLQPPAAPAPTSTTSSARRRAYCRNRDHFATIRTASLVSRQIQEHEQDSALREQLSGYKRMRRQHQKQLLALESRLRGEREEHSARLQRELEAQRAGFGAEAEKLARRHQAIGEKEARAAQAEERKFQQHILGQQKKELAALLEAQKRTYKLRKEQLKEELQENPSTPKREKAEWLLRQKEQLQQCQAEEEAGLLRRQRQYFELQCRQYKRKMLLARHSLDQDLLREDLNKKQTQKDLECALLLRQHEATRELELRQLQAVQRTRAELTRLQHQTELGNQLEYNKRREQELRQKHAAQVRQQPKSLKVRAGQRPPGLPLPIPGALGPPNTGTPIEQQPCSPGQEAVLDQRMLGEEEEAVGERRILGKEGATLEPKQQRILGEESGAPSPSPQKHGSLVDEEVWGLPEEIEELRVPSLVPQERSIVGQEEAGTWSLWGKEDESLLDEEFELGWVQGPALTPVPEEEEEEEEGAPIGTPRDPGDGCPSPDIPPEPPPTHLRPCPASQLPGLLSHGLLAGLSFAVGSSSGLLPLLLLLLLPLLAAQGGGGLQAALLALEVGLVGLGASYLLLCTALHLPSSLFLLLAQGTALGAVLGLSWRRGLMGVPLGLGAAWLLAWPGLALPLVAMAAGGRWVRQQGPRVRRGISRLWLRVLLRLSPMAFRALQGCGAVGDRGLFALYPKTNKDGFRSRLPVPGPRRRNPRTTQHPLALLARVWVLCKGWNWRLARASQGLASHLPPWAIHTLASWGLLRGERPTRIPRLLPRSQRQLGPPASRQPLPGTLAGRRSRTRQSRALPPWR
The experiment can be described thus: TAO Luciferase-Coupled Chemiluminescent Kinase assay (LCCA). The settings on record: 2 μM ATP, 10 μM MBP, 12 nM TAO, 2 hours; read-out: TAO inhibition IC50. As to the method: as §1
as §2, with “TAO biochemical” for “KIAA 1361 biochemical”, “nM TAO” for “nM KIAA 1361”, “mM […],” for “mM HEPES,”, “[…]” for “0.25 mg/mL”

Turning to `CCCCCOc1ccc(C(=O)NCC(=O)NC2CCCc3ccccc32)cc1` (stereo not drawn) [Entry 1, N-[2-oxo-2-(1,2,3,4-tetrahydronaphthalen-1-ylamino)ethyl]-4-(pentyloxy)benzamide], the IC50 (commonly the concentration at which inhibition is half-maximal) in experiment [1] was < 50 nM; at JIK, < 50 nM; on TAO, 50 to 500 nM.

For the compound `O=C(COc1ccc(OCc2ccccc2)cc1)NCC(=O)NC1CCCc2ccccc21` (stereo not drawn) [Entry 2, N˜2˜-[({4-[(phenylmethyl)oxy]phenyl}oxy)acetyl]-N-(1,2,3,4-tetrahydronaphthalen-1-yl)glycinamide], the IC50 in experiment [1] is 50 to 500 nM; at JIK it was < 50 nM; at TAO, 50 to 500 nM.

Regarding `O=C(COc1ccc(Br)cc1)NCC(=O)NC1CCCc2ccccc21` (stereo not drawn) [Entry 3, N˜2˜-{[(4-bromophenyl)oxy]acetyl}-N-(1,2,3,4-tetrahydronaphthalen-1-yl)glycinamide], the IC50 in experiment [1] was 50 to 500 nM; on JIK it was < 50 nM; on TAO, 50 to 500 nM.

As to `CCc1ccc(-c2ccc(C(=O)NCC(=O)NC3CCCc4ccccc43)cc2)cc1` (stereo not drawn) [Entry 4, 4′-ethyl-N-[2-oxo-2-(1,2,3,4-tetrahydronaphthalen-1-ylamino)ethyl]biphenyl-4-carboxamide], the IC50 (in experiment [1]; at JIK; on TAO) was < 50 nM each time.

Take `CCc1ccc(-c2ccc(C(=O)NC(C)C(=O)NC3CCc4ccccc4C3)cc2)cc1` (stereo not drawn) [Entry 5, 4′-ethyl-N-[1-methyl-2-oxo-2-(1,2,3,4-tetrahydronaphthalen-2-ylamino)ethyl]biphenyl-4-carboxamide]: the IC50 in experiment [1] was < 50 nM; at JIK, < 50 nM; on TAO, 50 to 500 nM.

Regarding `CCCCCCOc1ccc(C(=O)NCC(=O)NC2CCCc3ccccc32)cc1` (stereo not drawn) [Entry 6, 4-(hexyloxy)-N-[2-oxo-2-(1,2,3,4-tetrahydronaphthalen-1-ylamino)ethyl]benzamide], the IC50 in experiment [1] was < 50 nM; at JIK it was < 50 nM; on TAO it was 50 to 500 nM.

Turning to `O=C(NC1CCCc2ccccc21)C(NC(=O)C(c1ccccc1)C1CCCC1)c1cccnc1` (stereo not drawn) [Entry 7, 2-cyclopentyl-N-[2-oxo-1-pyridin-3-yl-2-(1,2,3,4-tetrahydronaphthalen-1-ylamino)ethyl]-2-phenylacetamide], the values for the IC50 (in experiment [1]; on JIK; at TAO) were 50 to 500 nM, < 50 nM and 50 to 500 nM, respectively.

Regarding `CCCCCCCOc1ccc(C(=O)NCC(=O)NC2CCCc3ccccc32)cc1` (stereo not drawn) [Entry 8, 4-(heptyloxy)-N-[2-oxo-2-(1,2,3,4-tetrahydronaphthalen-1-ylamino)ethyl]benzamide], the IC50 (in experiment [1]; at JIK; on TAO) was 50 to 500 nM each time.

Regarding `CCCCCOc1ccc(C(=O)NC(C)C(=O)NC2CCc3ccccc3C2)cc1` (stereo not drawn) [Entry 9, N-[1-methyl-2-oxo-2-(1,2,3,4-tetrahydronaphthalen-2-ylamino)ethyl]-4-(pentyloxy)benzamide], the IC50 lay in the range of 50 to 500 nM in experiment [1], 50 to 500 nM at JIK and 500 to 5000 nM on TAO.

Consider `CCCCCCc1ccc(C(=O)NCC(=O)NC2CCCc3ccccc32)cc1` (stereo not drawn) [Entry 10, 4-hexyl-N-[2-oxo-2-(1,2,3,4-tetrahydronaphthalen-1-ylamino)ethyl]benzamide], for which the IC50 (in experiment [1]; at JIK; on TAO) was 50 to 500 nM each time.

For the compound `CCCCCc1ccc(C(=O)NCC(=O)NC2CCCc3ccccc32)cc1` (stereo not drawn) [Entry 11, N-[2-oxo-2-(1,2,3,4-tetrahydronaphthalen-1-ylamino)ethyl]-4-pentylbenzamide], the IC50 (in experiment [1]; at JIK; at TAO) was 50 to 500 nM throughout.

Take `CCCCCCCc1ccc(C(=O)NCC(=O)NC2CCCc3ccccc32)cc1` (stereo not drawn) [Entry 12, 4-heptyl-N-[2-oxo-2-(1,2,3,4-tetrahydronaphthalen-1-ylamino)ethyl]benzamide]: the IC50 in experiment [1] fell in the range of 50 to 500 nM; at JIK it was 50 to 500 nM; on TAO, 500 to 5000 nM.
